Source: patent publication US8952033B2, “4-anilinofuro[2,3-b]quinoline derivatives, their preparation processes, and pharmaceutical compositions comprising the same” (Kaohsiung Medical University, priority 2011, dated 2015)
≈ marks a conversion by molar mass, not a printed value. Marks after values point to notes of the source that are not given here.

Experiments:
[1] = system: CL1-5 (metastatic lung adenocarcinoma cell); experiment: Preferential antiproliferative activity, CL1-5; format: cell-based
Protocol: (§1) Determination of GI50 of compounds 13a, 13c, 14a, 14c, 15a, 16a was conducted substantially according to the method as described in the preceding section A entitled “Evaluation of antiproliferative activity”, except that the normal cell line MRC-5 was also utilized, and that camptothecin and daunorubicin were tested instead of compounds 1, 2, 3. The concentration of the respective test compound, which can reduce absorbance by 50% (compared with DMSO), is regarded as GI50, and can be determined via dose-response curves. Determination of GI50 was conducted thrice for each test compound. GI50 is expressed as mean±SD.
(§2) SI stands for selectivity index and was calculated by substituting GI50 into the following formula: D=E/F (2) where • D=SI • E=GI50 of the respective test compound for cells of the normal cell line • F=GI50 of the respective test compound for cells of the cancer cell line The experimental results are summarized in Table 4. […]

[2] = system: A549 (human lung adenocarcinoma cell); experiment: Preferential antiproliferative activity, A549; format: cell-based
Protocol: as §1, §2

[3] = Single-dose pharmacokinetic analysis in CD-1 mice; format: in vivo
Protocol: CD-1 mice were divided into two groups. The first group of mice (n=9) were used to assess the singe-dose pharmacokinetics of the test compounds after intravenous administration, and the second group of mice (n=9) were utilized to assess the singe-dose pharmacokinetics of the test compounds after oral administration. All of the mice were fasted from 4 hours before the administration of the test compounds until 4 hours after the administration of the test compounds.
The assessment for singe-dose pharmacokinetics of the test compounds after intravenous administration was performed as follows. The first group of mice were further randomly divided into three subgroups including compound 13a group (n=3), compound 14a group (n=3), and compound 1 group (n=3). Compounds 13a, 14a, 1 (in polyethylene glycol 400/ethanol/water (30/5/65, v/v/v)) were respectively administered to the mice in compound 13a group, compound 14a group, and compound 1 group at a dose of 2 mg/kg via tail vein injection. Blood samples (0.25 mL) were collected from the mice by virtue of cardiac puncture right before the intravenous administration, and at 2 min, 5 min, 15 min, 30 min, 1 hr, 1.5 hr, 2 hr, 4 hr, 6 hr, 9 hr, 24 hr, and 27 hr after the intravenous administration.
The assessment for singe-dose pharmacokinetics of the test compounds after oral administration was conducted as follows. The second group of mice were further randomly divided into three subgroups including compound 13a group (n=3), compound 14a group (n=3), and compound 1 group (n=3). Compounds 13a, 14a, 1 (in 0.5% methylcellulose) were respectively administered to the mice in compound 13a group, compound 14a group, and compound 1 group at a dose of 20 mg/kg via tube feeding. Blood samples (0.25 mL) were collected from the mice by virtue of cardiac puncture right before the oral administration, and at 15 min, 30 min, 1 hr, 1.5 hr, 2 hr, 4 hr, 6 hr, 9 hr, 24 hr, and 27 hr after the oral administration.
Each of the blood samples was placed in a 0.5 mL Microtainer® tube containing anticoagulant EDTA-K2, followed by mixing evenly. Centrifugation at 7000 g and 4° C. was conducted for 5 minutes. Plasma was collected and was mixed uniformly with a proper amount of acetonitrile, followed by centrifugation. The resultant supernatant was acquired, and was injected into a reversed-phase Biosil ODS column so as to determine the concentration of the respective test compound in plasma (i.e., the plasma concentration of the respective test compound) using a LC-MS/MS system (Waters 2795 LC and Micromass Quattro Ultima). The singe-dose pharmacokinetic parameters of the respective test compound were calculated from the obtained concentration of the respective test compound in plasma (i.e., the obtained plasma concentration of the respective compound) at different time points using WinNonlin Standard Program (version 3.1, Pharsight Corp.)

[4] = system: CE81T (human esophageal carcinoma cell); experiment: Preferential antiproliferative activity, CE81T; format: cell-based
Protocol: as §1, §2

[5] = Determination of solubility in water; format: physicochemical
Protocol: Determination of solubility in water was conducted substantially according to the method as described in Vougogiannopoulou, K. et al. (2008), J. Med. Chem., 51:6421-6431. An excess amount of the respective test compound was added into water, followed by sonication for 5 minutes. The resultant mixture was stirred at ambient temperature (25±0.1° C.) overnight. Centrifugation at 4000 rpm and 25° C. was conducted for 5 minutes. Absorbance of the sample of the respective test compound was measured at 315-420 nm using a UV-VIS spectrophotometer (JASCO UV-Visible V570). For each test compound, a standard curve was generated by plotting concentrations of standard solutions and the corresponding absorbances. The absorbance of the sample of each test compound was then converted to solubility in water (μg/mL) using the corresponding standard curve.

NCI-H611 = experiment: Preferential antiproliferative activity, NCI-H611; format: cell-based
Protocol: as §1, §2

[6] = system: RCC 786-O (renal cell carcinoma cell); experiment: Preferential antiproliferative activity, RCC 786-O; format: cell-based
Protocol: as §1, §2

[7] = system: SAS (human oral squamous-cell carcinoma cell); experiment: Preferential antiproliferative activity, SAS; format: cell-based
Protocol: as §1, §2

[8] = system: BT483 (human breast carcinoma cell); experiment: Preferential antiproliferative activity, BT483; format: cell-based
Protocol: as §1, §2

[9] = system: PC-3 (human prostate cancer cell); experiment: Preferential antiproliferative activity, PC-3; format: cell-based
Protocol: as §1, §2

[10] = intravenous administration, 2 mg/kg

SMILES: C/C(=N\OCCN)c1ccc(Nc2c3ccccc3nc3occc23)cc1 [Compound 13a, (E)-1-(4-(furo[2,3-b]quinolin-4-ylamino)phenyl)ethanone O-2-aminoethyl oxime]
- GI50 ([1]; CL1-5, result based on a single trial): 5.18 µM
- SI CL1-5 ([1]; versus MRC-5): 8.27
- GI50 ([2]; Homo sapiens, A549, mean±SD): 6.58 ± 2.99 µM
- SI A549 ([2]; versus MRC-5): 6.51
- AUC(0-inf) [3, 10]: 362.6 ng·h/mL
- CL [3, 10]: 91.9 mL/min/kg
- MRT [3, 10]: 2.5 h
- Vss [3, 10]: 13.5 L/kg
- Vz [3, 10]: 38.8 L/kg
- Cmax ([3]; intravenous administration, 2 mg/kg, extrapolated plasma concentration at 0 hr): 1488.4 ng/mL
- t1/2 ([3]; intravenous administration, 2 mg/kg, from 0.5-1.5 hr (compd. 1) or 9-27 hr (13a, 14a)): 4.9^d hr
- Bioavailability ([3]; oral 20 mg/kg versus intravenous 2 mg/kg): 57.1%
- AUC(0-inf) ([3]; oral administration, 20 mg/kg): 2071.6 ng·h/mL
- Cmax ([3]; oral administration, 20 mg/kg): 1905.0 ng/mL
- MRT ([3]; oral administration, 20 mg/kg): 3.0 h
- Tmax ([3]; oral administration, 20 mg/kg): 0.5 h
- t1/2 ([3]; oral administration, 20 mg/kg, from 2-6 hr (compd. 1), 2-24 hr (13a), 2-9 hr (14a)): 3.4 h
- GI50 ([4]; Homo sapiens, CE81T, mean±SD): 16.9 ± 1.88 µM
- SI CE81T ([4]; versus MRC-5): 2.53
- Solubility in water ([5]; 25±0.1° C., stirred overnight, UV-VIS): 63 µg/mL (≈ 175 µM)
- Solubility in water relative to compound 2 ([5]; fold versus compound 2): about six times higher
- GI50 (NCI-H611; mean±SD): 0.98 ± 0.27 µM
- SI NCI-H611 (NCI-H611; versus MRC-5): 43.72
- GI50 ([6]; Homo sapiens, 786-0, mean±SD): 24 ± 2 µM
- SI RCC 786-O ([6]; versus MRC-5): 1.77
- GI50 ([7]; Homo sapiens, mean±SD): 15.5 ± 2.6 µM
- SI SAS ([7]; versus MRC-5): 2.76
- GI50 ([8]; Homo sapiens, BT-483, mean±SD): 10.2 ± 0.9 µM
- SI BT483 ([8]; versus MRC-5): 4.22
- GI50 ([9]; Homo sapiens, mean±SD): 11.8 ± 0.49 µM
- SI PC-3 ([9]; versus MRC-5): 3.62
